Measured values reported in patent US11413267B2, “Methods and compositions for inhibition of ATR and FANCD2 activation” (priority 2012, dated 2022).

Tests used:
MDA-MB-231 cells = assay: Mitotic entry assay (phospho-histone H3 Ser10, nocodazole trap, flow cytometry); type: cell-based, human
Text: Of these, the G2/M checkpoint involves ATM and ATR in collaboration, whereas the S/M checkpoint is mediated solely by ATR. To maintain genetic integrity, ATR can prevent premature mitotic entry in the event of incomplete DNA replication or unrepaired DNA damage. In order to evaluate the effect of benzopyran-4-one derivatives on these ATR-associated DNA damage checkpoints, we observed the effect of benzopyran-4-one derivatives on mitotic entry following hydroxyurea or cisplatin treatment.
DNA replication was measured using a Click-it EdU assay kit, which is based on incorporation of the thymidine analogue 5-ethynyl-2′-deoxyuridine (EdU) into DNA during replication (Invitrogen). Then, 10 μM EdU was added to the cell culture medium 30 min before the cells were harvested and fixed in 4% paraformaldehyde. After cycloaddition, EdU was detected with Alexa Fluor 647 using click reaction catalyzed by Cu (II), and the DNA content was stained by CellCycle 405-blue. To assay the mitotic entry, cells were treated with the indicated drugs and trapped in 70 nM nocodazole for 16 h, and antibodies against phospho-histone H3 Ser10 and PI were used to stain the mitotic cells and DNA content, respectively. An FITC Annexin V apoptosis detection kit was used to characterize the phenotype of cell death based on PI and Annexin V double staining (BD Pharmingen, San Diego, Calif.). Fluorescence-labeled cells were subsequently analyzed by the BD LSR II flow cytometer with a suitable selection of excitation and emission wavelengths. The percentages of different fluorescent cells were analyzed using WinMDI Ver. 2.9.

[1] = tested on: DDR signaling (Chk2 Thr68, Chk1 Ser345 phosphorylation); assay: Immunoblot of DDR signaling after compound alone (no DNA damage); type: cell-based, human
Experimental: Since mitomycin C can induce DDR in many cancers, we investigated what kind of DDR signaling was activated by Protoapigenone (I-1). […] We repeated the benzopyran-4-one derivatives experiment on lung and breast carcinoma cell lines A549 and MDA-MB-231 cells, respectively, and obtained similar results. Consistently, no marked changes in Chk1 and Chk2 phosphorylation signaling were detected even at high doses of either drug for as long as 8 h after drug treatment (FIGS. 3(a) and 3(b)).
Cell lysate preparations, gel electrophoresis, and immunoblotting were performed as previously described (23). The binding of primary antibodies were detected by horseradish peroxidase-coupled secondary antibodies (Jackson ImmunoResearch) followed by enhanced chemiluminescence (ECL) (Millipore). The images of non-saturated bands were captured using a luminescent image analyzer (LAS-4000 mini; Fujifilm). The antibodies used in this study are listed in supplementary materials.

[2] = tested on: MDA-MB-231 tumor xenograft; assay: Human xenograft tumors in nude mice; type: in vivo
Text: Inhibition of the checkpoint and repair mechanisms leads to chemosensitization in cancers. […] We further treated individual cells with cisplatin in combination with several varying doses of benzopyran-4-one derivatives, and counted survival colonies to determine their ability to survive after cisplatin-induced damage. […] To investigate the chemosensitization effect of low-dose benzopyran-4-one derivatives in vivo, we established a tumor xenograft in nude mice using human MDA-MB-231 tumor cells, which are considered to be more resistant to cisplatin and are also sensitive to treatment with benzopyran-4-one derivatives, at least as compared to A549 cells (FIGS. 4, 17(a) and 17(b)). […] The pharmacokinetic data of Protoapigenone (I-1) and compound II-1 needs to be compared in future studies to determine the differences in the chemical effects of these 2 compounds in vitro and in vivo.
Human breast cancer MAD-MB-231 cells were harvested from the culture, resuspended in medium without serum at 1×10^8 cells/mL, and 0.1 mL of this suspension was subcutaneously injected into the right flank of female nude mice (BALB/cAnN-Foxn1nu/Crl Narl; purchased from the National Science Council Animal Center, Taiwan). Tumor-injected mice that successfully developed tumors that grew to approximately 50-100 mm^3 in volume were randomly sorted into groups and used for the experiments. […]

[3] = tested on: A549 cells, MDA-MB-231 cells; assay: Cancer cell growth at low doses (FIGS. 19, 20); type: cell-based, human; details: low doses (I-1 0.25-1 μM, II-1 0.1-0.4 μM)
[4] = tested on: GFP-expressing retrovirus (Lenti-GFP); assay: Lenti-GFP infection of HEK293T cells; type: cell-based, lentivirus
Experimental: In addition to the test of the benzopyran-4-one derivative compounds on the DNA virus infection, they were tested on the retrovirus using a GFP-expressing retrovirus to visualize the […] infection. […]. Afterward, the lentiviral stock (Lenti-GFP) was titered and used to infect the cells for analysis.
To observe the anti-virus effect of the benzopyran-4-one derivative compounds, Ad-GFP and Lenti-GFP at a low MOI of 0.5 were then applied to infect the HEK293A cells and HEK293T cells, respectively. In the prevention group, cells were treated by compounds of Compound I-1 at 0.2, 1, and 2 μM or Compound II-1 at 0.1, 0.5, 1 μM for 30 minutes before Ad-GFP and Lenti-GFP infection. In the treatment group, cells were treated by compounds of Compound I-1 at 0.2, 1, and 2 μM or Compound II-1 at 0.1, 0.5, and 1 μM for 2 hours after Ad-GFP and Lenti-GFP infection. After a total of 6 hours of compounds and virus treatments, cells were washed with Hank's buffered salt solution and a flash culture media was replaced.
24 hours after virus infection, the effect of the benzopyran-4-one derivative compounds on the antivirus infection was recorded by observing the GFP positive cells under an inverted fluorescence microscope. The mean fluorescence intensity by flow cytometry in each plate of cells was analyzed for quantification.

Ad-GFP virus replication = Ad-GFP virus replication (supernatant re-infection of HEK293A cells); type: cell-based, adenovirus
Experimental: Ideally, the Ad-GFP virus is replicated within HEK293A cells. To test the effect of benzopyran-4-one derivative compounds on Ad-GFP virus replication, the same virus infection and compound treatment are performed as shown in FIG. 26. At the end of a 24-hour experiment, we collected the Ad-GFP virus from each well of Ad-GFP infected HEK293A using two freeze-thaw cycles and then collected the supernatants. An equal amount of supernatants from each well were then infected with the HEK293A cells, which were newly-prepared 1 day before infection in a 96-well plate at a density of 5×10^4 per well. Finally, the GFP cell images were obtained using the inverted fluorescence microscope and quantified by analyzing the MFI using flow cytometry for each well of cells.

[5] = compound alone (Control group, no DNA-damaging agent)
[6] = compound with Cisplatin (G2/M checkpoint)
[7] = compound with Hydroxyurea (S/M checkpoint)
[8] = pre-treatment, 0.2-2 μM Compound I-1 or 0.1-1 μM Compound II-1
[9] = post-treatment 2 hours after infection, re-infection
[10] = pre-treatment, 24 hours after re-infection

Row | SMILES | The percentage of mitotic cells (MDA-MB-231 cells; [5]) [%] | The percentage of mitotic cells (MDA-MB-231 cells; [6]) [%] | The percentage of mitotic cells (MDA-MB-231 cells; [7]) [%] | p53 protein accumulation ([1]; HEK293T cells) | Change of putative DDR signaling (phosphorylation of Chk2 Thr68 and Chk1 Ser345) ([1]; HEK293T cells, high doses (10 μM, FIG. 2)) | MAPKAPK2 phosphorylation (p38 MAPK target) ([1]; HEK293T cells, time after exposure) | Cisplatin sensitivity of MDA-MB-231 tumors ([2]; 2 mg/kg (data not shown)) | Cancer growth [3] | MFI of GFP protein ([4]; post-treatment, 2 μM) | MFI of GFP protein [4, 8] | MFI of GFP protein (Ad-GFP virus replication; [9]) | Number of GFP cells (Ad-GFP virus replication; [9]) | MFI of GFP protein (Ad-GFP virus replication; [10]) | Number of GFP cells (Ad-GFP virus replication; [10]) | Chk2 activation by compound itself ([1]; high dose, no DNA damage (FIGS. 3(a), 3(b))) | Tumor inhibitory effect ([2]; 0.2 mg/kg with 2 mg/kg cisplatin, intraperitoneally every 4 d) | MFI of GFP protein ([4]; post-treatment 2 hours after infection, 0.1-1 μM)
1 | O=C1C=CC(O)(c2cc(=O)c3c(O)cc(O)cc3o2)C=C1 [Compound I-1, Protoapigenone] | 23.69 ± 0.94 | 7.99 ± 0.91 | 3.40 ± 0.41 | slight accumulation of the p53 protein | did not induce noticeable changes | phosphorylated starting as early as 2 h | did not affect the cisplatin sensitivity | significantly slowed cancer growth in a dose-dependent manner | showed an inhibition effect | significantly decreased | significant decreased | significant decreased | significantly decreased | significantly decreased | – | – | –
2 | O=C1C=CC(O)(c2cc(=O)c3c(ccc4ccccc43)o2)C=C1 [Compound II-1, 3-(1-hydroxy-4-oxo-cyclohexa-2,5-dienyl)-1H-benzo[f]chromen-1-one] | 12.05 ± 0.68 | 8.14 ± 0.99 | 10.49 ± 1.17 | – | – | – | – | significantly slowed cancer growth in a dose-dependent manner | – | significantly decreased | significant decreased | significant decreased | significantly decreased | significantly decreased | slightly induces | greater than that of cisplatin treatment alone | significantly decreased
